Data from US12559750B2, “Methods and compositions for treatment of polycystic kidney disease” (Regulus Therapeutics Inc., priority 2021, dated 2026).
pEC50, pIC50: −log10 of the molar value.

Key:
[1] = biological target: AMPA-R; assay: [3H]AMPA radioligand binding assay on rat brain synaptic membranes; settings: for % Inhibition @ Concentration 100 uM: Table 8 (3′-terminal nucleobase/sugar variants); for % Inhibition @ Concentration 0.1 uM: Table 8, 0.1 uM; for % Inhibition @ Concentration 1 uM: Table 8, 1 uM; for % Inhibition @ Concentration 10 uM: Table 8, 10 uM;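 as to all read-outs here: competition binding in which test compounds at rising concentrations displace [3H]AMPA from AMPA-R on rat brain synaptic membranes, with reduced bound radioligand as read-out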
[2] = biological target: T1, AMPA-R (GluA1/GluA4) (Homo sapiens, UniProt P42261+P48058); assay: Manual whole-cell patch clamp, ChanTest GluA1/GluA4 EZCells; assay type: cell-based
T1 construct: host or cells: ChanTest GluA1/GluA4 EZCells
T1 sequence (P42261 19-906): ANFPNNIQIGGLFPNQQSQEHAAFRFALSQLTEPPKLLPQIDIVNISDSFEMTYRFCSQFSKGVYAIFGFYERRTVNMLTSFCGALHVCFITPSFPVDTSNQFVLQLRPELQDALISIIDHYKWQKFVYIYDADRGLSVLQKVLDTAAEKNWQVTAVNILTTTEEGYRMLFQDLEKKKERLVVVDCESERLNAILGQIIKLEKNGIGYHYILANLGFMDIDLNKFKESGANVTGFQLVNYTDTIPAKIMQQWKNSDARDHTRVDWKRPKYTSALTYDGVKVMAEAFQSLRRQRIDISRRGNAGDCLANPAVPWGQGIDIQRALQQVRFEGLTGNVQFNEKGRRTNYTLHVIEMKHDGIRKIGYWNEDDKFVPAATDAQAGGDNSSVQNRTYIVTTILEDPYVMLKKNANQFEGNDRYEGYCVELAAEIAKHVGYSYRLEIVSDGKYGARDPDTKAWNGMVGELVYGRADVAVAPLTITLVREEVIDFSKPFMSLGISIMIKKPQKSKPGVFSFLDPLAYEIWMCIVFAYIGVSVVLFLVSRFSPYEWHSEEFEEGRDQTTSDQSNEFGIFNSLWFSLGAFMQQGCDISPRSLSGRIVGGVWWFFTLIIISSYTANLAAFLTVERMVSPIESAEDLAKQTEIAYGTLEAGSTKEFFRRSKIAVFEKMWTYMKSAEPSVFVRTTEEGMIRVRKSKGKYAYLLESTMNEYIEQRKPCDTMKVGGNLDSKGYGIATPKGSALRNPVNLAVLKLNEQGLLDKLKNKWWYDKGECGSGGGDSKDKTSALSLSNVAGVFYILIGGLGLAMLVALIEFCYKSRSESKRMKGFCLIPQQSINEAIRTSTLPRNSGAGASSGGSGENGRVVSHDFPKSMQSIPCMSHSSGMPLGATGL
T1 sequence (P48058 21-902): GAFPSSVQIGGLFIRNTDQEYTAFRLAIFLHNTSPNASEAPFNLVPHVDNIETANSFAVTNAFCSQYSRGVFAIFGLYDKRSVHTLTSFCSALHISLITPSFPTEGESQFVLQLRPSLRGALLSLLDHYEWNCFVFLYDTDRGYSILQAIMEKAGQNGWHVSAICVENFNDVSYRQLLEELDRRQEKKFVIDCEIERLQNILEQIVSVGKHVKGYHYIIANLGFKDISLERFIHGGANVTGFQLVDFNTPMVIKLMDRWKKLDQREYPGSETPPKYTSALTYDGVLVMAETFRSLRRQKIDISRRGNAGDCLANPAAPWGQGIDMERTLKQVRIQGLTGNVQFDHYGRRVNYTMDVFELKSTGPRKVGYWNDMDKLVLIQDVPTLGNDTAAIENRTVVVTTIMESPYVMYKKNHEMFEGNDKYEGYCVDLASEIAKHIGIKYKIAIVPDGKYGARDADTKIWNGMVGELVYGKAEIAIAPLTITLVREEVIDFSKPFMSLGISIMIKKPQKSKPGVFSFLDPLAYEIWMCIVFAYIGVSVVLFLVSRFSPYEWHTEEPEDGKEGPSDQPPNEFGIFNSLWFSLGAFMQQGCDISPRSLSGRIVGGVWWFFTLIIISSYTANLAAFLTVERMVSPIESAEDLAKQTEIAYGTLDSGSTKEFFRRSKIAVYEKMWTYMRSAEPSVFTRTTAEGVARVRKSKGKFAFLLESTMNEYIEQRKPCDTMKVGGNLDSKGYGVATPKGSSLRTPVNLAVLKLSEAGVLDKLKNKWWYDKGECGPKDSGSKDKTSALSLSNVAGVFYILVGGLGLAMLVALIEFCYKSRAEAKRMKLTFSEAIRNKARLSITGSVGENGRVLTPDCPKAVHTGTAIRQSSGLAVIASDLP
Protocol: To evaluate functional antagonism of anti-miR-17 oligonucleotides towards the AMPA-R, certain oligonucleotides were tested using the manual whole-cell patch clamp technique, which records membrane currents as a measure of AMPA-R activity.
Manual whole-cell patch clamp studies were performed by Metrion Biosciences (Cambridge, UK). Whole-cell voltage clamp experiments were performed at room temperature (18-21° C.) using an EPC10 patch clamp amplifier using Patchmaster software (HEKA Elektronik). Glass patch pipettes were fabricated from borosilicate glass capillaries (Harvard Apparatus) to resistances between 1.4 and 2.5 MΩ. Membrane currents were recorded using the whole-cell patch clamp technique. ChanTest® GluA1/GluA4 EZCells were clamped at a holding potential of −80 mV and membrane currents elicited by 10 μM(S)-AMPA delivered using a VC38 perfusion system (ALA Scientific Instruments). The […] current amplitude values were measured with each application of 10 μM(S)-AMPA. The fractional change of current amplitude produced by each concentration of compound was calculated relative to the control current (pre-compound) and expressed as percentage change (% inhibition) for each cell. RGLS4326 was tested in a separate study from all other compounds in Table 6.

[3] = test system: miR-17; assay: miR-17 luciferase sensor assay in HeLa cells; assay type: cell-based
Protocol: The in vitro potency of certain compounds was evaluated using a miR-17 luciferase sensor assay which uses a luciferase reporter vector for miR-17, with two fully complementary miR-17 binding sites in tandem in the 3′-UTR of the luciferase gene. HeLa cells were co-transfected with the luciferase reporter vector and an exogenous miR-17-expression vector that acted to repress the luciferase signal.

[4] = test system: miR-17; assay: miR-17 PD-Sig in mouse kidney cell lines; assay type: cell-based
Protocol: The activity of certain compounds was evaluated using a mouse miR-17 Pharmacodynamic-Signature (miR-17 PD-Sig), which consists of the expression of 18 unique miR-17 target genes normalized by six reference housekeeping genes, to provide an unbiased and comprehensive assessment of miR-17 activity. The mouse miR-17 PD-Sig score was the calculated average of the 18 genes' individual log 2 fold changes (normalized by six housekeeping genes) compared to mock transfection (Lee et al., Nat. Commun., 2019, 10, 4148).
The PD-Sig for RGLS4326 in mIMCD3 cells (77.2, indicated by “*”) was not generated in this experiment; the value in Table 14 is that reported by Lee et al., Nat. Commun., 2019, 10, 4148. Blank cells in the table indicate that a compound was not tested in a particular cell line.

[5] = test system: miR-17; assay: microRNA polysome shift assay (miPSA) in kidney of wild type mice; assay type: in vivo, mouse; parameters: scale not given here; settings: seven days later
Protocol: In vivo potency was evaluated using the microRNA polysome shift assay (miPSA). This assay was used to determine the extent to which compounds directly engage the miR-17 target in the kidney in normal and PKD mice. The miPSA relies on the principle that active miRNAs bind to their mRNA targets in translationally active high molecular weight (HMW) polysomes, whereas the inhibited miRNAs reside in the low MW (LMW) polysomes. Treatment with anti-miR results in a shift of the microRNA from HMW polysomes to LMW polysomes. Thus, the miPSA provides a direct measurement of microRNA target engagement by a complementary anti-miR (Androsavich et al., Nucleic Acids Research, 2015, 44: e13).
Wild type mice were administered a single dose of 0.3 mg/kg, 3 mg/kg, or 30 mg/kg. Kidney tissue was collected seven days later and subjected to the miPSA. The mean displacement score for each treatment is shown in Table 15 (PBS, n=17; RGLS4326 30 mg/kg, n=10; all other treatments, n=4-5). The tested oligonucleotides displaced miR-17 from translationally active polysome (as measured by miPSA) in normal mouse kidneys.

[6] = test system: KspCre/Pkd1F/RC (Pkd1-F/RC) mice; assay: Efficacy in Pkd1-F/RC mouse model of ADPKD; assay type: in vivo; settings: 20 mg/kg SC on days 8, 10, 12, 15 of age
Protocol: Mice were sacrificed at 18 days of age, and kidney weight, body weight, cyst index, serum creatinine level, and blood urea nitrogen (BUN) level were measured. BUN level is a marker of kidney function. A higher BUN level correlates with poorer kidney function, thus a reduction in BUN level is an indicator of reduced kidney injury and damage and improved function. Statistical significance was calculated by one-way ANOVA with Dunnett's multiple correction.

[7] = test system: mice; settings: in vivo
Protocol: Each compound was tested in a single dose at 2000 mg/kg, and at escalating doses (100, 450, and 2000 mg/kg).

[8] = test system: C57Bl/6J male mice; assay: ICV maximum tolerated dose study, Study 1; assay type: in vivo, mouse; settings: for Mortality/total number of mice: 7-day
Protocol: Compounds (RG-NG-1017, RGLS4326, RG-NG-1001) were evaluated in a pilot maximum tolerated dose (MTD) study (discussed below). RG-NG-1017, RGLS4326 and RG-NG-1001 were initially evaluated at 4 dose-levels each. RG-NG-1017 was included for evaluation as a non-AMPA-R binding compound, as compared to RGLS4326 and RG-NG-1001, which bind AMPA-R. C57Bl/6J male mice (Jackson Laboratories), age 6-7 weeks, were used in this study. Mice were assigned randomly to treatment groups, and the study was blinded. Animals were allowed to acclimate for no less than 5 days and housed on a 12 hr light/dark cycle (lights on 7:00 AM). No more than 4 mice were house in each cage in a ventilated cage rack system. The diet consisted of standard rodent chow and water ad libitum.
The following parameters were used for this study: • 1. Route(s) of administration: intracerebroventricular (ICV) dosing of RG-NG-1017, RG-NG-1001, RGLS4326 • 2. Dose Volume(s): 4 μL • 3. Formulation(s): vehicle, Ca^2+ and Mg^2+ free dPBS • 4. Dose Frequency: Once • 5. Study duration: 8 Days • 6. Number of Groups: 3 • 7. Number of animals per group: (2-4 each group) • 8. Total number of animals: […]
For the ICV administration, mice were anesthetized and positioned for injections. The skin over the skull was incised, and a small hole was made in the skull above the target using a microdrill. The stereotactic coordinates were anteroposterior (AP), −0.4 mm; mediolateral (ML), +/−1.0-1.5 mm; dorsoventral (DV), −3.0 mm from the bregma for injection into both the right and left lateral cerebral ventricles (Hironaka et al, 2015). Animals were injected unilaterally with 4 μl into the right lateral cerebral ventricle. Compounds were injected over 1-2 min, and the needle was left in place for 0.5-1 min prior to withdrawal. The incision was closed with sutures, wound clips, or VetBond.
Following ICV treatment (Day 0), animals were monitored for 7 days in which daily health checks, body weight, and mortality was recorded. On Day 7, brain and kidney were collected and fixed (10% formalin) and stored pending histology.

ASCSAMAFUFGFCMASCS [RG5124, reference compound]
pIC50 ([1]; Experiment #1): < 4.00 | % Inhibition @ 0.1 uM ([1]; Experiment #1, 0.1 uM): 0.4% | % Inhibition @ 1 uM ([1]; Experiment #1, 1 uM): 12.9% | % Inhibition @ 10 uM ([1]; Experiment #1, 10 uM): −3.7% | % Inhibition @ 100 uM ([1]; Experiment #1, 100 uM): −5.1% | pIC50 ([1]; Experiment #2): < 4.00 | % Inhibition @ 0.1 uM ([1]; Experiment #2, 0.1 uM): −1.2% | % Inhibition @ 1 uM ([1]; Experiment #2, 1 uM): 1.6% | % Inhibition @ 10 uM ([1]; Experiment #2, 10 uM): −4.2% | % Inhibition @ 100 uM ([1]; Experiment #2, 100 uM): 7.2% | pIC50 ([1]; Experiment #3): < 4.00 | % Inhibition @ 0.1 uM ([1]; Experiment #3, 0.1 uM): 5.1% | % Inhibition @ 1 uM ([1]; Experiment #3, 1 uM): 9.3% | % Inhibition @ 10 uM ([1]; Experiment #3, 10 uM): 16.1% | % Inhibition @ 100 uM ([1]; Experiment #3, 100 uM): 23% | pIC50 ([1]; Table 8): ≤ 4.00 | % Inhibition @ Concentration 100 uM [1]: 10.1% | % Inhibition @ Concentration 0.1 uM [1]: −8.6% | % Inhibition @ Concentration 1 uM [1]: −0.6% | % Inhibition @ Concentration 10 uM [1]: 4.4% | % Inhibition on membrane currents evoked with 10 uM (s)-AMPA (Mean ± SD) ([2]; 0.3 uM compound): 14.1 ± 7.2% | % Inhibition on membrane currents evoked with 10 uM (s)-AMPA (Mean ± SD) ([2]; 3 uM compound): 42.1 ± 9.4% | Log2FC (37.5 nM) [3]: 0.40 | pEC50 ([4]; D52B5, mouse, PKD): 6.30 | miPSA Displacement Score, Mean ([5]; single dose 30 mg/kg): 0.5935 | BW/KW Ratio, Mean Difference vs. PBS [6]: 26.14 | Serum BUN, Mean Difference vs. PBS [6]: +8.138 | Serum Creatine, Mean Difference vs. PBS [6]: +0.07838 | Mean BW/KW Ratio ([6]; sacrificed at 18 days): 91.75 | Mean Serum BUN ([6]; sacrificed at 18 days): 50.61 | Mean Serum Creatine ([6]; sacrificed at 18 days): 0.2403

ASGSCMAFCFUFUMUSCS [RG-NG-1016]
pIC50 ([1]; Experiment #2): < 4.00 | % Inhibition @ 0.1 uM ([1]; Experiment #2, 0.1 uM): 4.7% | % Inhibition @ 1 uM ([1]; Experiment #2, 1 uM): 10.4% | % Inhibition @ 10 uM ([1]; Experiment #2, 10 uM): 12.3% | % Inhibition @ 100 uM ([1]; Experiment #2, 100 uM): 5.9% | % Inhibition on membrane currents evoked with 10 uM (s)-AMPA (Mean ± SD) ([2]; 0.3 uM compound): 16.0 ± 6.2% | % Inhibition on membrane currents evoked with 10 uM (s)-AMPA (Mean ± SD) ([2]; 3 uM compound): 27.1 ± 9.8% | functional antagonism towards AMPA-R relative to RGLS4326 ([2]; in words): reduced functional antagonism towards AMPA-R | Log2FC (37.5 nM) [3]: 2.32 | pEC50 ([3]; HeLa cells, 18- to 24-hour transfection): 7.69 | pEC50 ([4]; mIMCD3, mouse, Normal): 6.83 | miPSA Displacement Score, Mean ([5]; single dose 3 mg/kg): 2.263 | miPSA Displacement Score, Mean ([5]; single dose 30 mg/kg): 1.134 | miPSA Displacement Score, Mean ([5]; single dose 0.3 m/kg): 1.892 | CNS toxicity in high-dose mouse toxicity studies [7]: no CNS-toxicity were observed | CNS-related findings noted ([7]; mouse, sc, 2000 mg/kg): No

ASGSCSASCSUSUSUSGS [RG-NG-1001]
pIC50 ([1]; Experiment #1): 6.77 | % Inhibition @ 0.1 uM ([1]; Experiment #1, 0.1 uM): 41.1% | % Inhibition @ 1 uM ([1]; Experiment #1, 1 uM): 76.2% | % Inhibition @ 10 uM ([1]; Experiment #1, 10 uM): 89.1% | % Inhibition @ 100 uM ([1]; Experiment #1, 100 uM): 91.3% | pIC50 ([1]; Experiment #2): 6.72 | % Inhibition @ 0.1 uM ([1]; Experiment #2, 0.1 uM): 42.2% | % Inhibition @ 1 uM ([1]; Experiment #2, 1 uM): 68.3% | % Inhibition @ 10 uM ([1]; Experiment #2, 10 uM): 90.1% | % Inhibition @ 100 uM ([1]; Experiment #2, 100 uM): 93.5% | pIC50 ([1]; Experiment #3): 7.00 | % Inhibition @ 0.1 uM ([1]; Experiment #3, 0.1 uM): 59.4% | % Inhibition @ 1 uM ([1]; Experiment #3, 1 uM): 84.8% | % Inhibition @ 10 uM ([1]; Experiment #3, 10 uM): 94.6% | % Inhibition @ 100 uM ([1]; Experiment #3, 100 uM): 96.6% | pIC50 ([1]; Table 8): 6.82 | % Inhibition @ Concentration 100 uM [1]: 102.9% | % Inhibition @ Concentration 0.1 uM [1]: 41.9% | % Inhibition @ Concentration 1 uM [1]: 81.3% | % Inhibition @ Concentration 10 uM [1]: 99.3% | % Inhibition on membrane currents evoked with 10 uM (s)-AMPA (Mean ± SD) ([2]; 0.3 uM compound): 80.5 ± 6.3% | % Inhibition on membrane currents evoked with 10 uM (s)-AMPA (Mean ± SD) ([2]; 3 uM compound): 88.8 ± 4.5% | Mortality/total number of mice ([8]; single ICV 2.5 μg): 1/3 | Mortality/total number of mice ([8]; single ICV 5 μg): 4/4 | Mortality/total number of mice ([8]; single ICV 10 μg): 3/4 | Mortality/total number of mice ([8]; single ICV 25 μg): 3/3 | Mortality/total number of mice ([8]; single ICV 50 μg): 3/3 | Mortality/total number of mice ([8]; single ICV 100 μg): 2/2 | Mortality/total number of mice ([8]; single ICV 300 μg): 2/2 | Mortality/total number of mice ([8]; single ICV 600 μg): 2/2 | MTD ([8]; single ICV, C57Bl/6J mice, predicted from the study): under 2.5 μg | CNS toxicity in high-dose mouse toxicity studies [7]: ataxia, lethargy
